From US20240050431A1, “NEUROENDOCRINE DIFFERENTIATION IN IMIPRIDONE CANCER TREATMENT” (BROWN UNIVERSITY, priority 2022, published 2024)

Key:
DU145 [1] = test: Protein expression of TRAIL pathway proteins, DU145; assay type: cell-based; details: DU145 treated with ONC201 at IC50; 12, 24 and 48 hours
Text: FIGS. 2A-2C provide images showing NED marker expression in PC and SCLC.

LNCaP = test: CellTiter-Glo (CTG) viability assay, LNCaP; assay type: cell-based; details: Homo sapiens, 72 h
[2] = test system: tumor cell lines (n=6) from prostate and small cell lung cancer tissues; test: CellTiter-Glo (CTG) viability assay, panel of tumor cell lines; details: 6 PC and SCLC cell lines; varying drug concentrations, 72 hours
22RV1 = test: Protein expression of TRAIL pathway proteins, 22RV1; assay type: cell-based; details: 22RV1 treated with ONC201 at IC50; 12, 24 and 48 hours
PC3 = test: CellTiter-Glo (CTG) viability assay, PC3; assay type: cell-based; details: Homo sapiens, PC-3, 72 h
DU145 [3] = test: CellTiter-Glo (CTG) viability assay, DU145; assay type: cell-based; details: Homo sapiens, DU-145, 72 h

With Cc1ccccc1CN1C(=O)C2=C(CCN(Cc3ccccc3)C2)N2CCN=C12 [ONC201] the ATF4 protein expression (DU145 [1]) was “upregulation of ATF4 ISR pathway”, the CLpX protein expression (DU145 [1]) was “decreased CLpX expression” and the IC50 (LNCaP) was 1.33 µM. For the same compound, the “Sensitivity and cytotoxicity (viability)” value [2] was “shows sensitivity and cytotoxicity to tumor cell lines”, the ATF4 protein expression (22RV1) was “upregulation of ATF4 ISR pathway” and the CLpX protein expression (22RV1) was “decreased CLpX expression”. The IC50 (PC3) was 3.02 µM and the IC50 (DU145 [3]) was 3.11 µM.
